In PubChem BioAssay (NCI):
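All cell lines were grown in 96-well plates and treated with compound for 48 hours. GI50 is the concentration that inhibits growth by half. TGI is the concentration that stops growth completely.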

Columns and labels:
Test in all cases: NCI anticancer screen, dose series, 48 h
OVCAR-8 ovarian = test system: OVCAR-8 ovarian
A549 NSCLC = test system: A549 NSCLC
SK-MEL-28 melanoma = test system: SK-MEL-28 melanoma
LOX IMVI melanoma = test system: LOX IMVI melanoma
HT29 colon = test system: HT29 colon
SK-MEL-2 melanoma = test system: SK-MEL-2 melanoma
HCC-2998 colon = test system: HCC-2998 colon
NCI-H522 lung = test system: NCI-H522 lung
ACHN renal = test system: ACHN renal
NCI-H460 lung = test system: NCI-H460 lung

Row | Structure (SMILES) | TGI (OVCAR-8 ovarian) | TGI (A549 NSCLC) | TGI (SK-MEL-28 melanoma) | TGI (LOX IMVI melanoma) | TGI (HT29 colon) | TGI (SK-MEL-2 melanoma) | TGI (HCC-2998 colon) | TGI (NCI-H522 lung) | TGI (ACHN renal) | TGI (NCI-H460 lung) | GI50 (OVCAR-8 ovarian) | GI50 (A549 NSCLC) | GI50 (SK-MEL-28 melanoma) | GI50 (LOX IMVI melanoma) | GI50 (HT29 colon) | GI50 (SK-MEL-2 melanoma) | GI50 (HCC-2998 colon) | GI50 (NCI-H522 lung) | GI50 (ACHN renal) | GI50 (NCI-H460 lung)
1 | COc1cc2c(cc1OC)-c1cc3ccccc3c[n+]1CC2 | > 100 µM | > 100 µM | > 100 µM | > 100 µM | > 100 µM | > 100 µM | > 100 µM | 68.3 µM | > 100 µM | > 100 µM | – | – | – | – | – | – | – | – | – | –
2 | CCOc1ccc2nc(-c3ccc(O)cc3)sc2c1 | > 100 µM | > 100 µM | – | > 100 µM | > 100 µM | > 100 µM | – | 89.7 µM | > 100 µM | > 100 µM | – | – | – | – | – | – | – | – | – | –
3 | O=C(Nc1cccc(-n2ccc3c(NC(=O)c4ccccc4)nccc32)c1)c1ccc(N2CCOCC2)c(C(F)(F)F)c1 | > 100 µM | > 100 µM | > 100 µM | > 100 µM | – | 20.1 µM | – | 0.545 µM | > 63.5 µM | 26.9 µM | 0.055 µM | 0.0513 µM | 0.0436 µM | 0.0427 µM | 0.038 µM | 0.253 µM | 0.0614 µM | 0.0319 µM | 0.0853 µM | 0.037 µM
4 | CC1(C)CC23C4COC(=O)C2CCC1C3CC4=O (stereo not given) | 46.6 µM | 70.3 µM | 18.9 µM | 22.6 µM | 95.2 µM | 40.6 µM | 37.2 µM | 11.2 µM | – | 29.8 µM | – | – | – | – | – | – | – | – | – | –
5 | COC1=C2CC(C)CC(OC)C(O)C(C)/C=C(\C)C(OC(N)=O)C(OC)/C=C\C=C(/C)C(=O)NC(=C(C=NC(C)(C)C)C1=O)C2=O (stereo not given) | 73.6 µM | 37.5 µM | 11.7 µM | 22.3 µM | 21 µM | 12.3 µM | 16.6 µM | 1.63 µM | – | 18.4 µM | – | – | – | – | – | – | – | – | – | –
6 | O=C1OC[C@@H]2[C@@H](O)CCCCCN12 | > 100 µM | > 100 µM | > 100 µM | > 100 µM | > 100 µM | > 100 µM | > 100 µM | > 100 µM | > 100 µM | > 100 µM | – | – | – | – | – | – | – | – | – | –
7 | Fc1ccc2[nH]cc(-c3nc(-c4c[nH]c5ncccc45)cs3)c2c1 | – | > 100 µM | > 100 µM | – | – | > 100 µM | > 100 µM | – | – | > 100 µM | – | 2.65 µM | > 100 µM | – | – | > 100 µM | > 100 µM | – | – | 2.11 µM
8 | N/C(=N\N=C/c1ccccc1O)NO | > 43.7 µM | > 100 µM | > 100 µM | > 100 µM | > 42 µM | > 90.8 µM | 25.6 µM | 29.8 µM | – | > 43.7 µM | – | – | – | – | – | – | – | – | – | –
9 | Nc1ncnc2c1ncn2C1OC(COP(=O)(O)O)C(O)C1O (stereo not given) | 15.2 µM | > 50 µM | > 50 µM | > 50 µM | > 50 µM | > 50 µM | > 50 µM | > 50 µM | – | > 50 µM | – | – | – | – | – | – | – | – | – | –
10 | CCOC(=O)NC(Nc1ncccn1)(C(F)(F)F)C(F)(F)F | – | – | > 100 µM | > 100 µM | > 100 µM | > 100 µM | > 100 µM | > 100 µM | > 100 µM | > 100 µM | – | – | – | – | – | – | – | – | – | –
11 | CCS(=O)(=O)N1CCC(C(C)n2c(C)c(C(=O)NCc3c(OC)cc(C)[nH]c3=O)c3ccccc32)CC1 (stereo not given) | > 100 µM | > 100 µM | > 100 µM | > 100 µM | > 100 µM | > 100 µM | > 100 µM | > 100 µM | > 100 µM | > 100 µM | > 100 µM | > 100 µM | > 100 µM | > 100 µM | > 100 µM | > 100 µM | > 100 µM | > 100 µM | > 100 µM | > 100 µM
